Data on 25 compounds can be found in patent US10968225B2, “Compounds and compositions for the treatment of cystic fibrosis” (Fondazione Istituto Italiano Di Tecnologia, priority 2017, dated 2021).

Structures can show the parent of a compound that is named as a salt.

For the test, the target named is T1, mutant CFTR (Homo sapiens, UniProt P13569, DEL508-508).
T1 construct: expressed in transfected cells
T1 sequence (P13569 with tags, fused parts or gaps DEL508-508): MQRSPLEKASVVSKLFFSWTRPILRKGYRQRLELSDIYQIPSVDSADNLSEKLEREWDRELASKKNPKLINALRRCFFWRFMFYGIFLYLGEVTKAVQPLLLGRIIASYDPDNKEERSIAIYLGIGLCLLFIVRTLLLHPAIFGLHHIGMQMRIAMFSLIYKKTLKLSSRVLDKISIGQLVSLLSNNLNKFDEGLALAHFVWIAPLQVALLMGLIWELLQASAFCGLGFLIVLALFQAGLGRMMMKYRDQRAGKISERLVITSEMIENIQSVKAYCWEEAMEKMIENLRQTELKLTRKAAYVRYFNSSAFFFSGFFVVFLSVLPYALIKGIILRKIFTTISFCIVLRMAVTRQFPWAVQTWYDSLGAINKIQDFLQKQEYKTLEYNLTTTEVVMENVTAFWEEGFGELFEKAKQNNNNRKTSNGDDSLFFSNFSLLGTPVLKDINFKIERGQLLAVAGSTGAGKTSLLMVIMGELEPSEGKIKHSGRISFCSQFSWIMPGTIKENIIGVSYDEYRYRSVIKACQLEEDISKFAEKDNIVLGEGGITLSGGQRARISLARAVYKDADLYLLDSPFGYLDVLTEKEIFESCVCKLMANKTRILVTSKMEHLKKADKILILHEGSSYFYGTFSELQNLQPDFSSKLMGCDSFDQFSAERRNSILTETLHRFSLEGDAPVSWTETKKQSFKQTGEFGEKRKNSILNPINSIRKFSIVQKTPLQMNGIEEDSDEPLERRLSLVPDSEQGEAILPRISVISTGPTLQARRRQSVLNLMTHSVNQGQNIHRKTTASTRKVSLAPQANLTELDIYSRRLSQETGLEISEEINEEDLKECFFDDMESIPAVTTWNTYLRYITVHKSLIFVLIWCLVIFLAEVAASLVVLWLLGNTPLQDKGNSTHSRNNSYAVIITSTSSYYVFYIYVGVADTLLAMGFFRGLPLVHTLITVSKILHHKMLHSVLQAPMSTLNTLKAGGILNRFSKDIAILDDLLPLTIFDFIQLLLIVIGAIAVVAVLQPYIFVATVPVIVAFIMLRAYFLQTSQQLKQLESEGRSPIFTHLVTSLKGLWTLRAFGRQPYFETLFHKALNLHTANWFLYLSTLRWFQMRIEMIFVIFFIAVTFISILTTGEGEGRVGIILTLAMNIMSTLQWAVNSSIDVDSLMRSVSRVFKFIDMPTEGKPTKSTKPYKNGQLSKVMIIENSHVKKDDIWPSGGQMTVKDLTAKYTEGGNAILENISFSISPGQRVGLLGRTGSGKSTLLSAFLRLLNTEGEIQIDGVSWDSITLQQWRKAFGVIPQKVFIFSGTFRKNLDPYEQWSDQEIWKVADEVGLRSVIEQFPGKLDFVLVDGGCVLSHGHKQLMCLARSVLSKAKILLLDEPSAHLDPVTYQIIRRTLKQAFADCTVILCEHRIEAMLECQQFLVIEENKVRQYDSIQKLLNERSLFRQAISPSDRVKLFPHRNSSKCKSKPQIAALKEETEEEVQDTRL
Put plainly: Fluorescence (HS-YFP) assay for CFTR activity, corrector assay. The settings on record: CFBE41o- and FRT cells with stable expression of mutant CFTR, read-out: activity (EC50). It is filed as cell-based.
As to `CN(C(=O)c1cccc(-n2nc(C(F)(F)F)c3c2C(Oc2ccc(C(N)=O)cc2)CCC3)c1)c1ccc2c(c1)OC(F)(F)O2` (single isomer, unassigned) [Compound 284, (S) or (R)-3-[7-(4-Carbamoylphenoxy)-3-(trifluoromethyl)-4,5,6,7-tetrahydroindazol-1-yl]-N-(2,2-difluoro-1,3-benzodioxol-5-yl)-N-methyl-benzamide], the EC50 is less than 1000 nM.

Take `CN(C(=O)c1cccc(-n2nc(C(F)(F)F)c3c2C(Oc2ccc(C(N)=O)cc2)CCC3)c1)c1ccc2c(c1)OC(F)(F)O2` (single isomer, unassigned) [Compound 285, (R) or (S)-3-[7-(4-Carbamoylphenoxy)-3-(trifluoromethyl)-4,5,6,7-tetrahydroindazol-1-yl]-N-(2,2-difluoro-1,3-benzodioxol-5-yl)-N-methyl-benzamide]: the half-maximal effective concentration (EC50) is less than 1000 nM.

As to `Cc1nc2ncc(N(C)C(=O)c3cccc(-n4nc(C(F)(F)F)c5c4C(Oc4ccc(C(=O)O)cc4)CCC5)c3)cc2o1` (single isomer, unassigned) [Compound 286, (R) or (S)-4-[[1-[3-[Methyl-(2-methyloxazolo[4,5-b]pyridin-6-yl)carbamoyl]phenyl]-3-(trifluoromethyl)-4,5,6,7-tetrahydroindazol-7-yl]oxy]benzoic acid], the EC50 is 1000 to 2000 nM.

`Cc1nc2ncc(N(C)C(=O)c3cccc(-n4nc(C(F)(F)F)c5c4C(Oc4ccc(C(=O)O)cc4)CCC5)c3)cc2o1` (single isomer, unassigned) [Compound 287, (S) or (R)-4-[[1-[3-[Methyl-(2-methyloxazolo[4,5-b]pyridin-6-yl)carbamoyl]phenyl]-3-(trifluoromethyl)-4,5,6,7-tetrahydroindazol-7-yl]oxy]benzoic acid]: the EC50 was less than 1000 nM.

As for `CN(C(=O)c1cccc(-n2nc(C(F)(F)F)c3c2C(Oc2ccc(C(=O)O)cc2)CCC3)c1)c1ccnc(OC(F)F)c1` (single isomer, unassigned) [Compound 288, (R) or (S)-4-[[1-[3-[[2-(Difluoromethoxy)-4-pyridyl]-methyl-carbamoyl]phenyl]-3-(trifluoromethyl)-4,5,6,7-tetrahydroindazol-7-yl]oxy]benzoic acid], the EC50 is less than 1000 nM.

Regarding `CN(C(=O)c1cccc(-n2nc(C(F)(F)F)c3c2C(Oc2ccc(C(=O)O)cc2)CCC3)c1)c1ccnc(OC(F)F)c1` (single isomer, unassigned) [Compound 289, (S) or (R)-4-[[1-[3-[[2-(Difluoromethoxy)-4-pyridyl]-methyl-carbamoyl]phenyl]-3-(trifluoromethyl)-4,5,6,7-tetrahydroindazol-7-yl]oxy]benzoic acid], the EC50 was less than 1000 nM.

Regarding `CN(C(=O)c1cccc(-n2nc(C(F)(F)F)c3c2C(Oc2ccc(C(=O)O)cc2)COC3)c1)c1ccnc(OC(F)F)c1` (single isomer, unassigned) [Compound 290, (R) or (S)-4-[[1-[3-[[2-(Difluoromethoxy)-4-pyridyl]-methyl-carbamoyl]phenyl]-3-(trifluoromethyl)-6,7-dihydro-4H-pyrano[4,3-c]pyrazol-7-yl]oxy]benzoic acid], the EC50 is less than 1000 nM.

With `CN(C(=O)c1cccc(-n2nc(C(F)(F)F)c3c2C(Oc2ccc(C(=O)O)cc2)COC3)c1)c1ccnc(OC(F)F)c1` (single isomer, unassigned) [Compound 291, (S) or (R)-4-[[1-[3-[[2-(difluoromethoxy)-4-pyridyl]-methyl-carbamoyl]phenyl]-3-(trifluoromethyl)-6,7-dihydro-4H-pyrano[4,3-c]pyrazol-7-yl]oxy]benzoic acid], the half-maximal effective concentration (EC50) is 1000 to 2000 nM.

Turning to `CN(C(=O)c1cccc(-n2nc(C(F)(F)F)c3c2C(Oc2ncc(C(=O)O)cn2)COC3)c1)c1ccc2c(c1)OCC2` (single isomer, unassigned) [Compound 298, (R) or (S)-2-[[1-[3-[2,3-dihydrobenzofuran-6-yl(methyl)carbamoyl]phenyl]-3-(trifluoromethyl)-6,7-dihydro-4H-pyrano[4,3-c]pyrazol-7-yl]oxy]pyrimidine-5-carboxylic acid], the EC50 was less than 1000 nM.

Take `CN(C(=O)c1cccc(-n2nc(C(F)(F)F)c3c2C(Oc2ncc(C(=O)O)cn2)COC3)c1)c1ccc2c(c1)OCC2` (single isomer, unassigned) [Compound 299, (S) or (R)-2-[[1-[3-[2,3-dihydrobenzofuran-6-yl(methyl)carbamoyl]phenyl]-3-(trifluoromethyl)-6,7-dihydro-4H-pyrano[4,3-c]pyrazol-7-yl]oxy]pyrimidine-5-carboxylic acid]: the EC50 is 1000 to 2000 nM.

Consider `CN(C(=O)c1cccc(-n2nc(C(F)(F)F)c3c2C(Oc2ccc(CO)cc2)CCC3)c1)c1ccc2c(c1)OC(F)(F)O2` (stereo in doubt) [Compound 304, N-(2,2-Difluoro-1,3-benzodioxol-5-yl)-3-[(S)-7-[4-(hydroxymethyl)phenoxy]-3-(trifluoromethyl)-4,5,6,7-tetrahydroindazol-1-yl]-N-methyl-benzamide], for which the EC50 was less than 1000 nM.

Take `CN(C(=O)c1cccc(-n2nc(C(F)(F)F)c3c2CCN(C(=O)OC(C)(C)C)C3)c1)c1ccc2c(c1)OCO2` [Compound 001, Tert-butyl 1-[3-[1,3-benzodioxol-5-yl(methyl)carbamoyl]phenyl]-3-(trifluoromethyl)-6,7-dihydro-4H-pyrazolo[4,3-c]pyridine-5-carboxylate]: the EC50 is less than 1000 nM.

For `CN(C(=O)c1cccc(-n2nc(C(F)(F)F)c3c2CCNC3)c1)c1ccc2c(c1)OCO2` [Compound 002, N-(1,3-Benzodioxol-5-yl)-N-methyl-3-[3-(trifluoromethyl)-4,5,6,7-tetrahydropyrazolo[4,3-c]pyridin-1-yl] benzamide hydrochloride], the EC50 was less than 1000 nM.

Consider `CC(=O)N1CCc2c(c(C(F)(F)F)nn2-c2cccc(C(=O)N(C)c3ccc4c(c3)OCO4)c2)C1` [Compound 004, 3-[5-Acetyl-3-(trifluoromethyl)-6,7-dihydro-4H-pyrazolo[4,3-c]pyridin-1-yl]-N-(1,3-benzodioxol-5-yl)-N-methyl-benzamide], for which the EC50 was less than 1000 nM.

In the case of `CN(C(=O)c1cccc(-n2nc(C(F)(F)F)c3c2CCCC3)c1)c1ccc2c(c1)OCO2` [Compound 005, N-(1,3-Benzodioxol-5-yl)-N-methyl-3-[3-(trifluoromethyl)-4,5,6,7-tetrahydroindazol-1-yl]benzamide], the EC50 was less than 1000 nM.

Take `CN(C(=O)c1cccc(-n2nc(C(F)(F)F)c3c2CCN(S(C)(=O)=O)C3)c1)c1ccc2c(c1)OCO2` [Compound 006, N-(1,3-Benzodioxol-5-yl)-N-methyl-3-[5-methylsulfonyl-3-(trifluoromethyl)-6,7-dihydro-4H-pyrazolo[4,3-c]pyridin-1-yl]benzamide]: the concentration giving a half-maximal response (EC50) is less than 1000 nM.

For `CN(C(=O)c1cccc(-n2nc(C(F)(F)F)c3c2CCN(S(=O)(=O)c2ccccc2)C3)c1)c1ccc2c(c1)OCO2` [Compound 007, 3-[5-(Benzenesulfonyl)-3-(trifluoromethyl)-6,7-dihydro-4H-pyrazolo[4,3-c]pyridin-1-yl]-N-(1,3-benzodioxol-5-yl)-N-methyl-benzamide], the EC50 was less than 1000 nM.

On to `CN(C(=O)c1cccc(-n2nc(C(F)(F)F)c3c2CCN(C(=O)c2ccccc2)C3)c1)c1ccc2c(c1)OCO2` [Compound 008, N-(1,3-Benzodioxol-5-yl)-3-[5-benzoyl-3-(trifluoromethyl)-6,7-dihydro-4H-pyrazolo[4,3-c]pyridin-1-yl]-N-methyl-benzamide], for which the EC50 was less than 1000 nM.

Take `COC(=O)N1CCc2c(c(C(F)(F)F)nn2-c2cccc(C(=O)N(C)c3ccc4c(c3)OCO4)c2)C1` [Compound 009, Methyl 1-[3-[1,3-benzodioxol-5-yl(methyl)carbamoyl]phenyl]-3-(trifluoromethyl)-6,7-dihydro-4H-pyrazolo[4,3-c] pyridine-5-carboxylate]: the EC50 is less than 1000 nM.

Turning to `CN(C(=O)c1cccc(-n2nc(C(F)(F)F)c3c2CCN(C[C@@H]2COC(C)(C)O2)C3)c1)c1ccc2c(c1)OCO2` [Compound 013, N-(1,3-Benzodioxol-5-yl)-3-[5-[[(4R)-2,2-dimethyl-1,3-dioxolan-4-yl]methyl]-3-(trifluoromethyl)-6,7-dihydro-4H-pyrazolo[4,3-c]pyridin-1-yl]-N-methyl-benzamide], the EC50 is less than 1000 nM.

On to `CN(C(=O)c1cccc(-n2nc(C(F)(F)F)c3c2CCN(C[C@H]2COC(C)(C)O2)C3)c1)c1ccc2c(c1)OCO2` [Compound 014, N-(1,3-Benzodioxol-5-yl)-3-[5-[[(4S)-2,2-dimethyl-1,3-dioxolan-4-yl]methyl]-3-(trifluoromethyl)-6,7-dihydro-4H-pyrazolo[4,3-c]pyridin-1-yl]-N-methyl-benzamide], for which the EC50 was less than 1000 nM.

Regarding `CN(C(=O)c1cccc(-n2nc(C(F)(F)F)c3c2CCN(C[C@@H](O)CO)C3)c1)c1ccc2c(c1)OCO2` [Compound 015, N-(1,3-Benzodioxol-5-yl)-3-[5-[(2R)-2,3-dihydroxypropyl]-3-(trifluoromethyl)-6,7-dihydro-4H-pyrazolo[4,3-c]pyridin-1-yl]-N-methyl-benzamide], the EC50 is less than 1000 nM.

`CN(C(=O)c1cccc(-n2nc(C(F)(F)F)c3c2CCN(C[C@H](O)CO)C3)c1)c1ccc2c(c1)OCO2` [Compound 016, N-(1,3-Benzodioxol-5-yl)-3-[5-[(2S)-2,3-dihydroxypropyl]-3-(trifluoromethyl)-6,7-dihydro-4H-pyrazolo[4,3-c]pyridin-1-yl]-N-methyl-benzamide]: the 50% effective concentration (EC50) was less than 1000 nM.

`CN1CCOc2c(c(C(F)(F)F)nn2-c2cccc(C(=O)N(C)c3ccc4c(c3)OCO4)c2)C1` [Compound 017, N-(1,3-Benzodioxol-5-yl)-N-methyl-3-[5-methyl-3-(trifluoromethyl)-6,7-dihydro-4H-pyrazolo[4,3-f][1,4]oxazepin-1-yl]benzamide]: the EC50 was less than 1000 nM.

As for `CN(C(=O)c1cccc(-n2nc(C(F)(F)F)c3c2CCN(CC2CC2)C3)c1)c1ccc2c(c1)OCO2` [Compound 019, N-(1,3-Benzodioxol-5-yl)-3-[5-(cyclopropylmethyl)-3-(trifluoromethyl)-6,7-dihydro-4H-pyrazolo[4,3-c]pyridin-1-yl]-N-methyl-benzamide], the concentration giving a half-maximal response (EC50) is less than 1000 nM.

What is called EC50 is the midpoint of the concentration-response curve.
